For eight molecules, Inhibition and IC50 results are on record in ChEMBL document CHEMBL2073909 (J Pharmacol Exp Ther, 1999).

The target of data set [1] is T1, Hepatic sodium/bile acid cotransporter (Homo sapiens, UniProt Q14973).
T1 sequence (Q14973 whole entry): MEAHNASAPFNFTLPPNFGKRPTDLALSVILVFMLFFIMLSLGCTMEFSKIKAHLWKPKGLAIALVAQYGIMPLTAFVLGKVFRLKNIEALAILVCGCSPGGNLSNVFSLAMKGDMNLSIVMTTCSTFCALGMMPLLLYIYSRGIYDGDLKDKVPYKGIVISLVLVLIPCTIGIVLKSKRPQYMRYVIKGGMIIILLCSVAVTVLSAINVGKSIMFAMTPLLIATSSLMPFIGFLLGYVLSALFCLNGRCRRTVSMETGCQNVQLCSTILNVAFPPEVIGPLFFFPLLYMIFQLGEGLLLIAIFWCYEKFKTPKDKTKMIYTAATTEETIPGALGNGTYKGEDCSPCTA
The data set is described as follows: TP_TRANSPORTER: inhibition of Taurocholate uptake (Taurocholate: 5 uM, Chlorpropamide: 100 uM) in NTCP-expressing HeLa cells. Type of data set: functional, cell-based.

The target in data set [2] is T1, Hepatic sodium/bile acid cotransporter. The data set is described as follows: TP_TRANSPORTER: inhibition of Taurocholate uptake (Taurocholate: 5 uM, Deoxycholate: 100 uM) in NTCP-expressing HeLa cells. The format is functional, cell-based.
The target is the same in data set [3]. Type of data set: functional, cell-based, HeLa.
Data set [4] has the same target. The data set is described as follows: TP_TRANSPORTER: inhibition of Taurocholate uptake (Taurocholate: 5 uM, Progesterone: 100 uM) in NTCP-expressing HeLa cells. Type of data set: functional, cell-based.

`CCCNC(=O)NS(=O)(=O)c1ccc(Cl)cc1` [CHLORPROPAMIDE]: in data set [1], the Inhibition result was “inhibitor [(at a rough estimate) 30 % inhibition]”.

Take `C[C@H](CCC(=O)O)[C@H]1CC[C@H]2[C@@H]3CC[C@@H]4C[C@H](O)CC[C@]4(C)[C@H]3C[C@H](O)[C@]12C` [DEOXYCHOLIC ACID]: in data set [2], the Inhibition entry was “inhibitor [(at a rough estimate) 70 % inhibition]”.

As usually defined, the IC50 is the concentration that gives 50% inhibition. Regarding `CC(=O)N1CCN(c2ccc(OCC3COC(Cn4ccnc4)(c4ccc(Cl)cc4Cl)O3)cc2)CC1` (stereo not drawn) [KETOCONAZOLE], the IC50 in data set [3] amounted to 264 µM.

In data set [3], `CC(C)NC[C@H](O)COc1cccc2ccccc12` [LEVOPROPRANOLOL] came in with an IC50 of 6.1 µM.

Take `CC(=O)[C@H]1CC[C@H]2[C@@H]3CCC4=CC(=O)CC[C@]4(C)[C@H]3CC[C@]12C` [PROGESTERONE]: the Inhibition entry in data set [4] is “inhibitor [(at a rough estimate) 80 % inhibition]”.

As for `CC(C)NCC(O)COc1cccc2ccccc12` (stereo not drawn) [PROPRANOLOL], it took 5.5 µM to reach half-maximal inhibition in data set [3] (IC50).

Take `O=C1OC(c2ccc(O)c(S(=O)(=O)O)c2)(c2ccc(O)c(S(=O)(=O)O)c2)c2c(Br)c(Br)c(Br)c(Br)c21` [SULFOBROMOPHTHALEIN SODIUM]: the IC50 in data set [3] amounted to 7.3 µM.

In data set [3], `C[C@H](CCC(=O)O)[C@H]1CC[C@H]2[C@@H]3[C@@H](O)C[C@@H]4C[C@H](O)CC[C@]4(C)[C@H]3CC[C@]12C` [URSODIOL] had an IC50 of 3.6 µM.
